Source: ChEMBL document CHEMBL3525908, “Chronic doxorubicin cardiotoxicity modulates cardiac cytochrome P450-mediated arachidonic acid metabolism in rats” (Drug Metab Dispos, 2012)

Assays:
CYP1B1 = assay: Toxicity in Sprague-Dawley rat assessed as induction of CYP1B1 gene expression in kidney administered as cumulative dose of 15 mg/kg, ip divided into 6 injections for 2 weeks followed by compound washout period of 14 days by RT-PCR analysis relative to control; type: organism-based; design: dose 15 mg/kg, route intraperitoneal
Rattus norvegicus [1] = assay: Toxicity in Sprague-Dawley rat assessed as CYP4A3 gene expression in kidney administered as cumulative dose of 15 mg/kg, ip divided into 6 injections for 2 weeks followed by compound washout period of 14 days by RT-PCR analysis relative to control; type: organism-based; design: dose 15 mg/kg, route intraperitoneal; details: in vivo, 336 h
Rattus norvegicus [2] = assay: Toxicity in Sprague-Dawley rat assessed as CYP4F4 gene expression in kidney administered as cumulative dose of 15 mg/kg, ip divided into 6 injections for 2 weeks followed by compound washout period of 14 days by RT-PCR analysis relative to control; type: organism-based; design: dose 15 mg/kg, route intraperitoneal; details: in vivo, 336 h
H9c2 [3] = assay: Cytotoxicity against rat H9c2 cells assessed as reduction in BNP mRNA expression at 1 uM after 6 hrs in presence of t-AUCB; type: cell-based; details: h9c2, 6 h
H9c2 [4] = assay: Cytotoxicity against rat H9c2 cells assessed as reduction in ANP mRNA expression at 1 uM after 6 hrs; type: cell-based; details: h9c2, 6 h
Rattus norvegicus [5] = assay: (§1) Induction of CYP450-mediated arachidonic acid metabolism in Sprague-Dawley rat heart microsomes assessed as 5,6-EET formation administered as cumulative dose of 15 mg/kg, ip divided into 6 injections for 2 weeks followed by compound washout period of 14 days by LC-ESI-MS analysis relative to control; type: ADME, organism-based; design: dose 15 mg/kg, route intraperitoneal; details: 336 h
Rattus norvegicus [6] = assay: as §1, with “14,15-DHET” for “5,6-EET”; type: ADME, organism-based; design: dose 15 mg/kg, route intraperitoneal; details: 336 h
Rattus norvegicus [7] = assay: Toxicity in Sprague-Dawley rat assessed as sEH gene expression in liver administered as cumulative dose of 15 mg/kg, ip divided into 6 injections for 2 weeks followed by compound washout period of 14 days by RT-PCR analysis; type: organism-based; design: dose 15 mg/kg, route intraperitoneal; details: in vivo, 336 h
Rattus norvegicus [8] = assay: Toxicity in Sprague-Dawley rat assessed as CYP4A3 gene expression in liver administered as cumulative dose of 15 mg/kg, ip divided into 6 injections for 2 weeks followed by compound washout period of 14 days by RT-PCR analysis relative to control; type: organism-based; design: dose 15 mg/kg, route intraperitoneal; details: in vivo, 336 h
Rattus norvegicus [9] = assay: Cardiotoxicity in Sprague-Dawley rat assessed as increase in Bax gene expression level administered as cumulative dose of 15 mg/kg, ip divided into 6 injections for 2 weeks followed by compound washout period of 14 days by RT-PCR analysis relative to control; type: toxicity, organism-based; design: dose 15 mg/kg, route intraperitoneal; details: in vivo, 336 h
Rattus norvegicus [10] = assay: Cardiotoxicity in Sprague-Dawley rat assessed as increase in ANP gene expression level administered as cumulative dose of 15 mg/kg, ip divided into 6 injections for 2 weeks followed by compound washout period of 14 days by RT-PCR analysis relative to control; type: toxicity, organism-based; design: dose 15 mg/kg, route intraperitoneal; details: 336 h
Rattus norvegicus [11] = assay: Cardiotoxicity in Sprague-Dawley rat assessed as increase in beta-MHC gene expression level administered as cumulative dose of 15 mg/kg, ip divided into 6 injections for 2 weeks followed by compound washout period of 14 days by RT-PCR analysis relative to control; type: toxicity, organism-based; design: dose 15 mg/kg, route intraperitoneal; details: 336 h
CYP4A3 = assay: Cardiotoxicity in Sprague-Dawley rat assessed as increase in CYP4A3 gene expression level administered as cumulative dose of 15 mg/kg, ip divided into 6 injections for 2 weeks followed by compound washout period of 14 days by RT-PCR analysis relative to control; type: toxicity, organism-based; design: dose 15 mg/kg, route intraperitoneal; details: heart
CYP4F1 = assay: Cardiotoxicity in Sprague-Dawley rat assessed as increase in CYP4F1 gene expression level administered as cumulative dose of 15 mg/kg, ip divided into 6 injections for 2 weeks followed by compound washout period of 14 days by RT-PCR analysis relative to control; type: toxicity, organism-based; design: dose 15 mg/kg, route intraperitoneal; details: heart

Which results are given for `COc1cccc2c1C(=O)c1c(O)c3c(c(O)c1C2=O)C[C@@](O)(C(=O)CO)C[C@@H]3O[C@H]1C[C@H](N)[C@H](O)[C@H](C)O1` [DOXORUBICIN]?
fold induction at 336 h (CYP1B1): 1.8; Activity (Rattus norvegicus [1]): Non-toxic; Activity (Rattus norvegicus [2]): Non-toxic; Activity (H9c2 [3]): Toxic; Activity (H9c2 [4]): Non-toxic; Activity (Rattus norvegicus [5]): Active; Ratio (Rattus norvegicus [6]): 1.3; Activity (Rattus norvegicus [7]): Non-toxic; Activity (Rattus norvegicus [8]): Non-toxic; Ratio (Rattus norvegicus [9]): 1.9; fold induction at 15 mg/kg (Rattus norvegicus [10]): 3.5; fold induction at 15 mg/kg (Rattus norvegicus [11]): 2.7; fold induction at 336 h (CYP4A3): 2; fold induction at 336 h (CYP4F1): 1.6
